According to patent US8785481B2, “Ether benzotriazole derivatives” (Merck Sharp & Dohme Corp., priority 2010, dated 2014):

What follows are molecules tested against T1, recombinant human mGluR2 (Homo sapiens, UniProt Q14416) (assay: FLIPR Ca2+ mobilization assay, potentiation of glutamate (EC20) response). Conditions: CHO dhfr- cells expressing human mGluR2 and Gα16, EC20 glutamate (900 nM).
T1 construct: expressed in transfected cells
Format: cell-based
Experimental: Potencies are determined as follows. The compounds of the present invention may be tested in a fluorescence laser imaging plate reader (FLIPR) based assay. This assay is a common functional assay to monitor Ca^2+ mobilization in whole cells expressing recombinant receptor coupled with a promiscuous G-protein. CHO dhfr- cells stably expressing recombinant human mGluR2 and Gα16 loaded with Fluo-4 AM (Invitrogen, Carlsbad Calif.) are treated with varying concentrations of compounds and the Ca^2+ response is monitored on a FLIPR384 (Molecular Devices, Sunnydale Calif.) for agonist activity. The potentiation response is monitored after a subsequent addition of an EC20 concentration of glutamate (900 nM). The maximum calcium response at each concentration of compound for agonism or potentiation are plotted as dose responses curves fitted with a four parameters logistic equation giving EC50 and Hill coefficient using the iterative non linear curve fitting software program.

T1 sequence (Q14416 19-872): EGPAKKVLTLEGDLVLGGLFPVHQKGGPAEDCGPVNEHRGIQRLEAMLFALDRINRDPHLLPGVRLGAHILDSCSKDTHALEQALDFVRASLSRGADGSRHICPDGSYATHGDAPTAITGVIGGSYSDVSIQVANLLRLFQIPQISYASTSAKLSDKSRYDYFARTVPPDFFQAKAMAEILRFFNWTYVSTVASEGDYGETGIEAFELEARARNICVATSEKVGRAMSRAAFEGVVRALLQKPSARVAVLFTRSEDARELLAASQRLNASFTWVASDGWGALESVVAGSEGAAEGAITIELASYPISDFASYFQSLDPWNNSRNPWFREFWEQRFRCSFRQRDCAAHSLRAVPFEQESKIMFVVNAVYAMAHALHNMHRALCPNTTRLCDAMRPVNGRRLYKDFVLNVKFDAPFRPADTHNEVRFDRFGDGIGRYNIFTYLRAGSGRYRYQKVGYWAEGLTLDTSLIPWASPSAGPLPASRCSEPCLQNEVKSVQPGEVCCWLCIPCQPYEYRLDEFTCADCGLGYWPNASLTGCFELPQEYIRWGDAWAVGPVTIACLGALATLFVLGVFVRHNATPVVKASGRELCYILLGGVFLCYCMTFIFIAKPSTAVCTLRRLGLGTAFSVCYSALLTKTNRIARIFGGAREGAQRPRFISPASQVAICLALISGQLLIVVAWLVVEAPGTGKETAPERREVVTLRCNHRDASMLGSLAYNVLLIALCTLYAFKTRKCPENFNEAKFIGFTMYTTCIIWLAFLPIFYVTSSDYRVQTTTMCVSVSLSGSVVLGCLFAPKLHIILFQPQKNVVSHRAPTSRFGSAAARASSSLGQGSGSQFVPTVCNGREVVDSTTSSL

| Structure (SMILES) | EC50 [nM] |
| --- | --- |
| CC(C)(C)Cn1nnc2c(Br)c(OCc3cccc(-c4c[nH]nc4C#N)c3)ccc21 [Example 3-34, 4-[3-({[4-bromo-1-(2,2-dimethylpropyl)-1H-benzotriazol-5-yl]oxy}methyl)phenyl]-1H-pyrazole-3-carbonitrile] | 49 |
| O=C1CCC(Oc2ccc3c(nnn3CC3CC3)c2Br)CC12CC2 (centres unmarked) [Example 10-171, 7-{[4-bromo-1-(cyclopropyl-methyl)-1H-benzotriazol-5-yl]oxy}spiro[2.5]octan-4-one] | 87 |
| CC(Oc1ccc2c(nnn2CC(C)(C)C)c1Br)c1ccccc1 (centres unmarked) [Example 3-15, 4-bromo-1-(2,2-dimethylpropyl)-5-(1-phenylethoxy)-1H-benzotriazole] | 91 |
| CC1(COc2ccc3c(nnn3CC3CC3)c2C(F)(F)F)CCN(C(=O)CO)CC1 [Example 4-79, 2-[4-({[1-(cyclopropylmethyl)-4-(trifluoromethyl)-1H-benzotriazol-5-yl]oxy}methyl)-4-methyl-piperidin-1-yl]-2-oxoethanol] | 7 |
| CC(C)(C)Cn1nnc2c(Br)c(OCc3ncccn3)ccc21 [Example 4-7, 4-bromo-1-(2,2-dimethyl-propyl)-5-(pyrimidin-2-ylmethoxy)-1H-benzotriazole] | 521 |
| CC(C)(C)Cn1nnc2c(Br)c(OCc3cccc4ccnn34)ccc21 [Example 4-5, 4-bromo-1-(2,2-dimethylpropyl)-5-(pyrazolo[1,5-a]pyridin-7-ylmethoxy)-1H-benzotriazole] | 42 |
| Cc1cnc(C#N)c(-c2cccc(COc3ccc4c(nnn4CC(C)(C)C)c3Br)c2)c1 [Example 3-26, 3-[3-({[4-bromo-1-(2,2-dimethylpropyl)-1H-benzotriazol-5-yl]oxy}methyl)phenyl]-5-methylpyridine-2-carbonitrile] | 16 |
| CC(C)(C)OC(=O)N1CCC(COc2ccc3c(nnn3CC3CC3)c2Cl)CC1 [Example 4-63, tert-butyl 4-({[4-chloro-1-(cyclopropylmethyl)-1H-benzotriazol-5-yl]oxy}methyl) piperidine-1-carboxylate] | 34 |
| CC(C)(C)Cn1nnc2c(Br)c(OCc3ncccc3F)ccc21 [Example 4-42, 4-bromo-1-(2,2-dimethyl-propyl)-5-[(3-fluoropyridin-2-yl)methoxy]-1H-benzotriazole] | 41 |
| COc1ccc2c(nnn2CCCC(F)(F)F)c1Br [Example 1-11, 4-bromo-5-methoxy-1-(4,4,4-trifluorobutyl)-1H-benzotriazole] | 51 |
| CC(C)(C)OC(=O)N1CCC(COc2ccc3c(nnn3CC3CC3)c2Br)C1 (centres unmarked) [Example 4-67, tert-butyl 3-({[4-bromo-1-(cyclopropylmethyl)-1H-benzotriazol-5-yl]oxy}methyl) pyrrolidine-1-carboxylate] | 20 |
| CCOc1ccc2c(nnn2CC(C)(C)C)c1Br [Example 1-4, 4-bromo-1-(2,2-dimethylpropyl)-5-ethoxy-1H-benzotriazole] | 32 |
| CC(C)(C)Cn1nnc2c(Br)c(OCc3cccc(-c4ccc(O)c(C(=O)O)c4)c3)ccc21 [Example 3-3, 3′-({[4-bromo-1-(2,2-dimethylpropyl)-1H-benzotriazol-5-yl]oxy}methyl)-4-hydroxy-biphenyl-3-carboxylic acid] | 3.5 |
| CC(C)(C)Cn1nnc2c(Br)c(OCc3cccc(N4CCCCC4)n3)ccc21 [Example 4-27, 4-bromo-1-(2,2-dimethylpropyl)-5-[(6-piperidin-1-ylpyridin-2-yl)methoxy]-1H-benzotriazole] | 288 |
| CC(C)[C@@H](C)n1nnc2c(Br)c(O)c(Br)cc21 [Example 2-4, 4,6-dibromo-1-[(1R)-1,2-dimethylpropyl]-1H-benzotriazol-5-ol] | 373 |
| CC(C)(C)Cn1nnc2c(Br)c(OCc3ccccc3Cl)ccc21 [Example 4-45, 4-bromo-5-[(2-chlorobenzyl)oxy]-1-(2,2-dimethylpropyl)-1H-benzotriazole] | 65 |

The remaining lines, values ahead:

| EC50 [nM] | Structure (SMILES) |
| --- | --- |
| 415 | Brc1c(OCC2COCCO2)ccc2c1nnn2CC1CC1 (centres unmarked) [Example 10-73, 4-bromo-1-(cyclopropylmethyl)-5-(1,4-dioxan-2-ylmethoxy)-1H-benzotriazole] |
| 10 | COc1cccc(COc2ccc3c(nnn3CC3CC3)c2Br)n1 [Example 6-1, 4-Bromo-1-(cyclopropylmethyl)-5-[(6-methoxypyridin-2-yl)methoxy]-1H-benzotriazole] |
| 530 | CCOc1ccc2c(nnn2CC2CC2)c1Br [Example 10-253, 4-bromo-1-(cyclopropylmethyl)-5-ethoxy-1H-benzotriazole] |
| 222 | FC(F)(F)CN1CCN(CCOc2ccc3c(nnn3CC3CC3)c2Br)CC1 [Example 10-220, 4-bromo-1-(cyclopropylmethyl)-5-{2-[4-(2,2,2-trifluoroethyl)piperazin-1-yl]ethoxy}-1H-benzotriazole] |
| 214 | Brc1c(OCCn2cccn2)ccc2c1nnn2CC1CC1 [Example 10-275, 4-bromo-1-(cyclopropylmethyl)-5-[2-(1H-pyrazol-1-yl)ethoxy]-1H-benzotriazole] |
| 39 | Brc1c(OCC2CCC2)ccc2c1nnn2CC1CC1 [Example 10-140, 4-bromo-5-(cyclobutylmethoxy)-1-(cyclopropylmethyl)-1H-benzotriazole] |
| 424 | FC(F)CN1CCC(Oc2ccc3c(nnn3CC3CC3)c2Br)CC1 [Example 10-47, 4-bromo-1-(cyclopropylmethyl)-5-{[1-(2,2-difluoroethyl)piperidin-4-yl]oxy}-1H-benzotriazole] |
| 281 | N#CCOc1ccc2c(nnn2CC2CC2)c1Br [Example 5-1, {[4-Bromo-1-(cyclopropylmethyl)-1H-benzotriazol-5-yl]oxy}acetonitrile] |
| 188 | C[C@H](O)C(=O)N1CCC(COc2ccc3c(nnn3CC3CC3)c2Br)CC1 [Example 4-65, (2S)-1-[4-({[4-bromo-1-(cyclopropylmethyl)-1H-benzotriazol-5-yl]oxy}methyl)piperidin-1-yl]-1-oxopropan-2-ol] |
| 9 | FC(F)(F)c1c(OCc2ccccc2)ccc2c1nnn2CC1CC1 [Example 11-1, 5-(Benzyloxy)-1-(cyclopropylmethyl)-4-(trifluoromethyl)-1H-benzotriazole] |
| 72 | CC(C)(C)C(O)COc1ccc2c(nnn2CC2CC2)c1Br (racemic) [Example 8-1, (±)-1-{[4-Bromo-1-(cyclopropylmethyl)-1H-benzotriazol-5-yl]oxy}-3,3-dimethylbutan-2-ol] |
| 93 | COc1ccc2c(nnn2CC2CCCC2)c1Br [Example 1-3, 4-bromo-1-(cyclopentylmethyl)-5-methoxy-1H-benzotriazole] |
| 84 | CC(C)(C)/C(COc1ccc2c(nnn2CC2CC2)c1Br)=N/O [Example 9-1, 1-{[4-Bromo-1-(cyclopropylmethyl)-1H-benzotriazol-5-yl]oxy}-N-hydroxy-3,3-dimethylbutan-2-imine] |
| 34 | CC(C)(C)C(=O)COc1ccc2c(nnn2CC2CC2)c1Br [Example 7-1, 1-{[4-Bromo-1-(cyclopropylmethyl)-1H-benzotriazol-5-yl]oxy}-3,3-dimethylbutan-2-one] |
| 150 | Brc1c(OCc2cscn2)ccc2c1nnn2CC1CC1 [Example 10-56, 4-bromo-1-(cyclopropylmethyl)-5-(1,3-thiazol-4-ylmethoxy)-1H-benzotriazole] |
| 60 | C=CCOc1ccc2c(nnn2CC2CC2)c1Br [Example 10-120, 4-bromo-1-(cyclopropylmethyl)-5-(prop-2-en-1-yloxy)-1H-benzotriazole] |
